Measured values reported in US6498181B1, “Synergistic tumorcidal response induced by histamine” (Maxim Pharmaceuticals, priority 1999, dated 2002).
Read-outs that look alike come from different tables or passages of the source.

Legend:
melanoma = conditions: histamine s.c. 0.5-1.0 mg per injection 1-2 times per day with vaccine of killed mixture of three melanomic cell lines
Excerpt: (Quak and van Dongen, Eur. Arch. Otorhinolaryngol 251:1-5(1994)).

[1] = Effect of duration of histamine administration on efficacy and side effects; conditions: administered over less than 1 to 3 minutes; anaphalaxis, heart failure, broncospasm, flushing, headache etc.
breast cancer = conditions: histamine s.c. 0.5-1.0 mg per injection 1-2 times per day with humanized 131I labeled p185^HER-2 antibody
Method: Accordingly, a pharmaceutically acceptable form of histamine in a sterile carrier solution is injected subcutaneously into the patient for one week (0.5-1.0 mg per injection 1-2 times per day) prior to antibody therapy.
The tumorcidal response is evaluated by determining the level of p185^HER-2 receptor in the patient over time according to conventional methods. (Quak and van Dongen, Eur. Arch. Otorhinolaryngol 251:1-5(1994)).

prostate tumor [2] = conditions: histamine s.c. 0.5-2.0 mg per day one week before surgery, blood histamine kept at at least about 0.2 μM after
Method: Accordingly, a pharmaceutically acceptable form of histamine in a sterile carrier solution is injected subcutaneously into a patient suffering from prostate cancer for one week (0.5-2.0 mg per day) prior to surgery.
Once the tumor is removed, circulating levels of blood histamine are maintained at at least about 0.2 μM until a complete response is observed. The tumorcidal response is evaluated by determining the level of PSA antigen in the patient over time according to conventional methods.

prostate tumor [3] = conditions: histamine s.c. 0.5-2.0 mg per day one week before external beam radiation (60-70 Gy), continued after
Method: The tumorcidal response is evaluated by determining the level of PSA antigen in the patient over time according to conventional methods.

[4] = Method: Five patients suffering from acute myleogenous leukemia (AML) in remission received treatment with histamine dihydrochloride diluted in sterile sodium chloride. Histamine was administered morning and night at separate subcutaneous injection sites over a period of 21 consecutive days. The histamine was given as subcutaneous injections using 1 ml syringes containing […] of histamine per ml. The histamine treatment was given twice daily (morning and night) at a dosage of 0.4 to 0.7 mg histamine per injection (i.e., a daily total dose of histamine of 0.8 to 1.4 mg per day).
Peripheral blood venous samples were drawn in 10 ml heparinized test tubes before the onset of treatment and weekly thereafter. The samples were drawn at least 8 hours after the last injections of histamine. The concentration of histamine in the whole blood samples was analyzed by the use of a double antibody radioimmunoassay kit obtained from Bionerica, Inc., Newport Beach, Calif. 92663 (catalog number 1051). The manufacturer's instructions provided with the kit, dated June, 1989, were followed. Blood histamine levels were measured at the indicated times.

[5] = tested on: human SK-N-SH neuroblastoma xenografts; conditions: histamine 0.5 mg per day tail vein with 10 μCi 131I labeled BW575/9 mAb, versus BW575/9 by itself
[6] = tested on: follicular non-Hodgkins lymphoma; conditions: cited from earlier work

| circulating blood histamine concentration following histamine administration ([4]; five AML patients in remission, s.c. 0.4 to 0.7 mg per injection twice daily, 21 days, samples at least 8 hours after last injection, less than 0.2 μM at start) | Compound | tumorcidal response (presence of melanoma over time) (melanoma) | side effects on rapid administration [1] | tumorcidal response (p185^HER-2 receptor level over time) (breast cancer) | tumorcidal response (PSA antigen level over time) (prostate tumor [2]) | tumorcidal response (PSA antigen level over time) (prostate tumor [3]) | persistence of circulating blood histamine levels ([4]; even after histamine administration was discontinued) | tumorcidal response [5] | treatment outcome in clinical trials [6] |
| --- | --- | --- | --- | --- | --- | --- | --- | --- | --- |
| at least 0.2 μM | NCCc1c[nH]cn1 [histamine] | synergistic tumorcidal response is observed | more pronounced and serious sides effects | synergistic tumorcidal response is observed | synergistic tumorcidal response is observed | synergistic tumorcidal response is observed | remained elevated for sustained periods of time | greater tumorcidal response |  |
|  | ^131I labeled anti-B1 (Bexxar) mAb: 131I radiolabeled mAb raised to the CD-20 antigens expressed on the surface of mature B-cells |  |  |  |  |  |  |  | successful in treating follicular non-Hodgkins lymphoma |
